Data as given in patent US20050192243A1, “Neuromuscular blocking agents and antagonists thereof” (priority 2003, published 2005).

Key:
[1] = tested on: Rhesus monkeys; experiment: Recovery of twitch response from GW 280430A neuromuscular block with or without cysteine-like antagonist; assay type: in vivo
Procedure: (§1) Rhesus monkeys were anesthetized with ketamine (5 mg/Kg) and thiopental (5 mg/Kg) given intramuscularly or intravenously. Anesthesia was maintained with a mixture of halothane (1.5%), nitrous oxide (60%) and oxygen (40%). The common peroneal nerve was stimulated supramaximally with square wave pulses of 0.2 m sec duration at a rate of 0.15 Hz. Twitch contractions were recorded via the tendon of the extensor digitorum muscle.
In all animals, the trachea was intubated and ventilation was controlled at 12-15 ml/kg, 18-24 breaths per minute. A peripheral vein and artery were cannulated for drug administration and for recording or arterial pressure, respectively.
Rhesus monkeys were anesthetized and treated with a halofumarate neuromuscular blocking agent as described in Example 1.
Several tests were generally run (#1, #2, #3, etc.) with time in between each test so that the animal could recover.

[2] = tested on: Rhesus monkeys
Procedure: as §1, with “ketainine” for “ketamine”
In all animals, the trachea was intubated and ventilation was controlled at 12-15 ml/kg, 18-24 breaths per minute. A peripheral vein and artery were cannulated for drug administration and for recording of arterial pressure, respectively. A dosage of 0.1 mg/kg of the 353044 intermediate duration halofumarate neuromuscular blocking agent was administered intravenously. The 353044 intermediate duration halofumarate neuromuscular blocking agent has the following structure, wherein X is Cl. [drawing 11]
For comparison, 0.5 mg/kg of the ultra-short 280430A halofumarate neuromuscular blocking agent was administered to a separate set of animals. […] Animals that had received the 353044 intermediate duration halofumarate neuromuscular blocking agent, then received a combination of […] 10 mg/kg glutathione.

[3] = tested on: Rhesus monkeys; conditions: GW 280430A-treated animals
[4] = Buck 13.2, Baseline (430A, no cysteine)
[5] = Count 13.1 kg, #3, 0.2 mg/kg 430A alone
[6] = Impy 12.5 kg, #1, 0.05 mg/kg 430A alone
[7] = Impy 12.5 kg, #3, 0.05 mg/kg 430A alone
[8] = Means of Skye, Impy & Count, Baseline (430A, no cysteine)
[9] = Means of Skye, Impy and Buck, Baseline (430A, no cysteine)
[10] = Morgan 12.4 kg, #1, 0.05 mg/kg 430A alone
[11] = Morgan 12.4 kg, #2, 0.01 mg/kg 430A alone
[12] = Skye 11.6 kg, Baseline (430A, no cysteine)
[13] = Skye 12.1 kg, #1, 0.05 mg/kg 430A alone
[14] = Skye 12.1 kg, #3, 0.05 mg/kg 430A alone
[15] = 5 mg/kg antagonist after GW 280430A, FIG. 4, FIG. 5
[16] = #4 (after 3 administrations of 430A), 0.05 mg/kg 430A & cysteine 5 mg/kg
[17] = #4 (after 3 administrations of 430A), 0.05 mg/kg 430A & cysteine 10 mg/kg
[18] = Buck 13.2, 0.2 mg/kg 430A & cysteine 10.0 mg/kg
[19] = Count 13.1 kg, #4, 0.2 mg/kg 430A & cysteine 4 mg/kg
[20] = Impy 12.5 kg, #2, 0.05 mg/kg 430A & cysteine 5 mg/kg
[21] = Means of Skye, Impy & Count, 0.05 mg/kg 430A & cysteine 4 or 5 mg/kg
[22] = Means of Skye, Impy and Buck, 430A & Cysteine 10 mg/kg
[23] = Morgan 12.4 kg, #3, 0.1 mg/kg 430A & cysteine 20 mg/kg
[24] = Skye 11.6 kg, 0.2 mg/kg 430A & cysteine 10.0 mg/kg
[25] = Skye 12.1 kg, #2, 0.05 mg/kg 430A & cysteine 2 mg/kg

SMILES: COc1cc2c(cc1OC)[C@H](c1cc(OC)c(OC)c(OC)c1)[N@@+](C)(CCCOC(=O)/C=C(\Cl)C(=O)OCCC[N@+]1(C)CCc3cc(OC)c(OC)cc3[C@H]1Cc1cc(OC)c(OC)c(OC)c1)CC2.[Cl-].[Cl-] [GW 280430A, (Z)-2-Chloro-4-{3-[(1S,2R)-6,7-dimethoxy-2-methyl-1-(3,4,5-trimethoxyphenyl)-1,2,3,4-tetrahydro-2-isoquinolinio]propyl}-1-{3{(1R,2S)-6,7-dimethoxy-2-methyl-1-[(3,4,5-trimethoxyphenyl)methyl]-1,2,3,4-tetrahydro-2-isoquinolinio}propyl}-2-butenedioate dichloride]
- 25-75% recovery interval [1, 4]: 54 s
- Recovery 5-95% [1, 4]: 114 s
- time to 5% twitch recovery [1, 4]: 12 s
- time to 25% twitch recovery [1, 4]: 48 s
- time to 75% twitch recovery [1, 4]: 102 s
- time to 95% twitch recovery [1, 4]: 126 s
- Recovery 5% [1, 5]: 9 s
- Recovery 5-95% [1, 5]: 75 s
- Recovery 25% [1, 5]: 24 s
- Recovery 25-75% [1, 5]: 33 s
- Recovery 75% [1, 5]: 57 s
- Recovery 95% [1, 5]: 84 s
- Recovery 5% [1, 6]: 30 s
- Recovery 5-95% [1, 6]: 141 s
- Recovery 25% [1, 6]: 63 s
- Recovery 25-75% [1, 6]: 57 s
- Recovery 75% [1, 6]: 120 s
- Recovery 95% [1, 6]: 171 s
- Recovery 75% [1, 7]: 45 s
- Recovery 95% [1, 7]: 78 s
- 25-75% recovery interval [1, 8]: 75 s
- Recovery 5-95% [1, 8]: 193 s
- time to 5% twitch recovery [1, 8]: 16 s
- time to 25% twitch recovery [1, 8]: 46 s
- time to 75% twitch recovery [1, 8]: 121 s
- time to 95% twitch recovery [1, 8]: 209 s
- 25-75% recovery interval [1, 9]: 77 s
- Recovery 5-95% [1, 9]: 193 s
- time to 5% twitch recovery [1, 9]: 22 s
- time to 25% twitch recovery [1, 9]: 61 s
- time to 75% twitch recovery [1, 9]: 138 s
- time to 95% twitch recovery [1, 9]: 215 s
- Recovery 25% [1, 10]: 40 s
- Recovery 25-75% [1, 10]: 103 s
- Recovery 75% [1, 10]: 143 s
- Recovery 95% [1, 10]: 233 s
- Recovery 5% [1, 11]: 30 s
- Recovery 5-95% [1, 11]: 282 s
- Recovery 25% [1, 11]: 42 s
- Recovery 25-75% [1, 11]: 144 s
- Recovery 75% [1, 11]: 186 s
- Recovery 95% [1, 11]: 312 s
- 25-75% recovery interval [1, 12]: 120 s
- Recovery 5-95% [1, 12]: 324 s
- time to 5% twitch recovery [1, 12]: 24 s
- time to 25% twitch recovery [1, 12]: 72 s
- time to 75% twitch recovery [1, 12]: 192 s
- time to 95% twitch recovery [1, 12]: 348 s
- Recovery 5% [1, 13]: 9 s
- Recovery 5-95% [1, 13]: 363 s
- Recovery 25% [1, 13]: 51 s
- Recovery 25-75% [1, 13]: 135 s
- Recovery 75% [1, 13]: 186 s
- Recovery 95% [1, 13]: 372 s
- Recovery 25% [1, 14]: 143 s
- Recovery 25-75% [1, 14]: 122 s
- Recovery 75% [1, 14]: 265 s
- Recovery 95% [1, 14]: 368 s
- speed of recovery compared with 353044, with antagonist ([2]; 0.50 mg/kg GW 280430A + 5 mg/kg cysteine vs 0.10 mg/kg 353044 + cysteine and glutathione, FIG. 9): again faster
- speed of recovery compared with 353044, no antagonist ([2]; 0.50 mg/kg GW 280430A vs 0.10 mg/kg 353044, FIG. 9 solid lines): recovered faster

SMILES: CC(=O)N[C@@H](CS)C(=O)O [N-acetylcysteine, reference compound]
- time to complete reversal of the block in neuromuscular activity after administration [1, 15]: ≤ 165 s

SMILES: N[C@@H](CS)C(=O)O [cysteine]
- time to complete reversal of the block in neuromuscular activity after administration ([1]; 5 mg/kg cysteine after GW 280430A, FIG. 3): ≤ 100 s
- 25-75% recovery interval [1, 16]: 63 s
- Recovery 5-95% [1, 16]: 237 s
- time to 5% twitch recovery [1, 16]: 15 s
- time to 25% twitch recovery [1, 16]: 39 s
- time to 75% twitch recovery [1, 16]: 102 s
- time to 95% twitch recovery [1, 16]: 252 s
- 25-75% recovery interval [1, 17]: 15 s
- Recovery 5-95% [1, 17]: 96 s
- time to 5% twitch recovery [1, 17]: 18 s
- time to 25% twitch recovery [1, 17]: 51 s
- time to 75% twitch recovery [1, 17]: 66 s
- time to 95% twitch recovery [1, 17]: 114 s
- 25-75% recovery interval [1, 18]: 2 s
- Recovery 5-95% [1, 18]: 42 s
- time to 5% twitch recovery [1, 18]: 6 s
- time to 25% twitch recovery [1, 18]: 24 s
- time to 75% twitch recovery [1, 18]: 26 s
- time to 95% twitch recovery [1, 18]: 48 s
- Recovery 5% [1, 19]: 9 s
- Recovery 5-95% [1, 19]: 27 s
- Recovery 25% [1, 19]: 15 s
- Recovery 25-75% [1, 19]: 15 s
- Recovery 75% [1, 19]: 30 s
- Recovery 95% [1, 19]: 36 s
- Recovery 5% [1, 20]: 6 s
- Recovery 5-95% [1, 20]: 90 s
- Recovery 25% [1, 20]: 33 s
- Recovery 25-75% [1, 20]: 15 s
- Recovery 75% [1, 20]: 48 s
- Recovery 95% [1, 20]: 96 s
- 25-75% recovery interval [1, 21]: 31 s
- time to 5% twitch recovery [1, 21]: 10 s
- time to 25% twitch recovery [1, 21]: 29 s
- time to 75% twitch recovery [1, 21]: 60 s
- time to 95% twitch recovery [1, 21]: 125 s
- 25-75% recovery interval [1, 22]: 12 s
- Recovery 5-95% [1, 22]: 76 s
- time to 5% twitch recovery [1, 22]: 10 s
- time to 25% twitch recovery [1, 22]: 31 s
- time to 75% twitch recovery [1, 22]: 43 s
- time to 95% twitch recovery [1, 22]: 86 s
- Recovery 5% [1, 23]: 24 s
- Recovery 5-95% [1, 23]: 144 s
- Recovery 25% [1, 23]: 42 s
- Recovery 25-75% [1, 23]: 24 s
- Recovery 75% [1, 23]: 66 s
- Recovery 95% [1, 23]: 168 s
- 25-75% recovery interval [1, 24]: 18 s
- Recovery 5-95% [1, 24]: 90 s
- time to 5% twitch recovery [1, 24]: 6 s
- time to 25% twitch recovery [1, 24]: 18 s
- time to 75% twitch recovery [1, 24]: 36 s
- time to 95% twitch recovery [1, 24]: 96 s
- Recovery 5% [1, 25]: 10 s
- Recovery 5-95% [1, 25]: 208 s
- Recovery 25% [1, 25]: 35 s
- Recovery 25-75% [1, 25]: 65 s
- Recovery 75% [1, 25]: 100 s
- Recovery 95% [1, 25]: 218 s
- side effects at highest dosage tested ([3]; cysteine 20 mg/kg): no negative side effects
- effect on blood pressure or heart rate ([3]; cysteine, therapeutic range (5-10 mg/Kg), FIG. 2): no significant affect on blood pressure or heart rate

SMILES: N[C@@H](CCC(=O)N[C@@H](CS)C(=O)NCC(=O)O)C(=O)O [glutathione]
- time to complete reversal of the block in neuromuscular activity after administration [1, 15]: ≤ 140 s
